Reference: patent US9481648B2, “Kinase inhibitors” (Respivert Limited, priority 2013, dated 2016)
Where two headings read alike, the source gives them in different places.

Legend:
[1] = tested on: TNBS-induced colitis in BDF1 mice; experiment: TNBS-induced colitis in mice (in vivo iv); set-up: species or system mouse; conditions: for inflammatory cell infiltrate in the reticular and laminar propria zones / ulcer grade and epithelial repair compared to the vehicle control: 5 mg/kg orally, 2 days; for inflammatory cell infiltrate in the reticular and laminar propria zones / ulcer grade and epithelial repair compared to the vehicle control / activity in in vivo model of colonic inflammation (histopathology analysis): TNBS-induced colitis, mice; for LP inflammation / Ulcer grade: TNBS-induced colitis in mice; for activity in in vivo model of colonic inflammation (histopathology analysis): conducted over 2 days
Protocol: Non-fasted, 10-12 week old, male BDF1 mice are dosed by oral gavage twice daily with either vehicle (5 mL/kg), reference item (Budesonide 2.5 mg/kg) or test compound (1 or 5 mg/kg) one day before (Day −1) stimulation of the inflammatory response by treatment with 2,4,6-trinitrobenzenesulphonic acid (TNBS) (15 mg/mL in 50% ethanol/50% saline). On Day 0 of the study TNBS (200 μL) is administered intra-colonically via a plastic catheter with BID dosing of the vehicle, reference or test compound continuing for 2 or 4 days. During the study, animals are weighed every day and stool observations are made and recorded as a score, based on stool consistency. At the time of sacrifice on Day 2 (or Day 4), the large intestine is removed and the length and weight recorded. Sections of the colon are taken for histopathology scoring to determine disease severity.

[2] = Plasma pharmacokinetics in rats, single intravenous or oral administration; type: in vivo, rat (male Wistar); conditions: for C0: intravenous 0.25 mg/kg in 5% DMSO-7.5% Solutol HS15-87.5% normal saline; for Vd: read-out: Vss; for Fpo: oral 5 mg/kg, vehicle C (Example 4) or B
Protocol: Studies were conducted by Sai Life Sciences (Hinjewadi, Pune, India) to investigate the plasma pharmacokinetics and total colon tissue distribution of compounds of the invention. In particular, pharmacokinetic studies were carried out in: • male C57BL/6 mice, following a single oral administration; and • male Wistar rats following a single intravenous or oral administration.

Syk [3] = target: T1, Syk (Homo sapiens (Human), UniProt P43405); experiment: Syk enzyme inhibition (FRET, Z-LYTE); type: biochemical
Summary of the method: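 Syk or c-Src enzyme (3000 or 2000 ng/mL solutions) was preincubated 2 h at RT with compound solutions at 1, 0.1, 0.01 or 0.001 µg/mL. Z-LYTE FRET peptide (8 µM solution) and ATP (800 µM solution for c-Src, 60 µM for Syk) were then added for 1 h, followed by protease development for 1 h. Phosphorylation was read as the coumarin/fluorescein emission ratio.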

[4] = tested on: intestinal mucosa biopsies from the inflamed regions of the colon of ulcerative colitis (IBD) patients; experiment: Human biopsy assay (assay l); type: cell-based; conditions: 1 μg/mL; for cytokine (IL-1β, IL-6 and IL-8) release compared to the DMSO control: 24 hours, biopsies from ulcerative colitis patients; for Cytokine release from biopsies of UC patients: IL-1β release / Cytokine release from biopsies of UC patients: IL-6 release / Cytokine release from biopsies of UC patients: IL-8 release: 24 hr, relative to DMSO control = 100%
Protocol: Intestinal mucosa biopsies are obtained from the inflamed regions of the colons of IBD patients. The biopsy material is cut into small pieces (2-3 mm) and placed on steel grids in an organ culture chamber at 37° C. in a 5% CO2/95% O2 atmosphere in serum-free media. DMSO control or test compounds at the desired concentration are added to the tissue and incubated for 24 hr in the organ culture chamber. The supernatant is harvested for determination of IL-6, IL-8, IL-1β and TNFα levels by R&D ELISA.

CYP3A4 = CYP3A4 (Homo sapiens (Human), UniProt P08684); experiment: CYP3A4 inhibition study; type: in vitro ADME; conditions: for inhibition at 5 μM / inhibition at 15 µM: human; for inhibition at 5 μM: read-out: % Inh (inhibition at 5 μM reported instead); for inhibition at 15 µM: read-out: 15 μM % Inh
CYP3A4, sequence (P08684 whole entry): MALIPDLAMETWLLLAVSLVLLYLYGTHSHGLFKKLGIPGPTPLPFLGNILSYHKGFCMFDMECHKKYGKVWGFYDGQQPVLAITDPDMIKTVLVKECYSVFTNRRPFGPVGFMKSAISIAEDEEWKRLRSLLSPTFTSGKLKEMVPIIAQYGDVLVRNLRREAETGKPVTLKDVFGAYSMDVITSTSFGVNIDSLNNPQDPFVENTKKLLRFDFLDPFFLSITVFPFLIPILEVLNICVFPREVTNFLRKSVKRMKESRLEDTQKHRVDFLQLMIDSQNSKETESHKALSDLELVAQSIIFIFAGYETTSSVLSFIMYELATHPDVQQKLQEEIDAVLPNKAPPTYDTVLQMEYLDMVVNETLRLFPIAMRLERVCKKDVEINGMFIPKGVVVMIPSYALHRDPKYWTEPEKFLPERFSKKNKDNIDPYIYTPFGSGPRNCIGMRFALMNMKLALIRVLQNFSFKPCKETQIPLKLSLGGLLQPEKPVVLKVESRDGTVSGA
Protocol: Assessment of certain in vitro ADME (absorption, distribution, metabolism, and excretion) parameters for certain compounds of the invention was conducted by BioFocus (Saffron Walden, UK).

Syk [5] = target: T1, Syk; experiment: KINOMEscan enzyme binding assay (dissociation constant)
Protocol: (§1) Kinase enzyme binding activities of compounds disclosed herein may be determined using a proprietary assay which measures active site-directed competition binding to an immobilized ligand (Fabian, M. A. et al., Nature Biotechnol., 2005, 23:329-336). These assays may be conducted by DiscoverX (formerly Ambit; San Diego, Calif.). The percentage inhibition produced by incubation with a test compound may be calculated relative to the non-inhibited control.

Lck = Lck (Homo sapiens (Human), UniProt P06239); experiment: as above
Lck, sequence (P06239 whole entry): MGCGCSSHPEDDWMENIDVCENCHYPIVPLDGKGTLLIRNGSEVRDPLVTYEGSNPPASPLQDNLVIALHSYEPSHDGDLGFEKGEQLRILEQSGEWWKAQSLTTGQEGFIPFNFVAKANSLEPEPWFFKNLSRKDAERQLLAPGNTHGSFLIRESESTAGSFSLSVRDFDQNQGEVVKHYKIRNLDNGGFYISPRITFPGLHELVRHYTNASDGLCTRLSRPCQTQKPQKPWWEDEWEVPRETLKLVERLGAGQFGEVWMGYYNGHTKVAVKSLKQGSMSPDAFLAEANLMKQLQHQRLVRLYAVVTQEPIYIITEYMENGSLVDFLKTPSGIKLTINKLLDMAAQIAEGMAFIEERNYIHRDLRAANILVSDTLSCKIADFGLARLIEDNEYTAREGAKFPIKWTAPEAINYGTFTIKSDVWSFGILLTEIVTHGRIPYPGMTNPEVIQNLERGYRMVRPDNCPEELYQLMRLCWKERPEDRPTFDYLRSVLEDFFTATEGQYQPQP
Protocol: as §1

p38 MAPKα = p38 MAPKα (Homo sapiens (Human), UniProt Q16539); experiment: as above
p38 MAPKα, sequence (Q16539 whole entry): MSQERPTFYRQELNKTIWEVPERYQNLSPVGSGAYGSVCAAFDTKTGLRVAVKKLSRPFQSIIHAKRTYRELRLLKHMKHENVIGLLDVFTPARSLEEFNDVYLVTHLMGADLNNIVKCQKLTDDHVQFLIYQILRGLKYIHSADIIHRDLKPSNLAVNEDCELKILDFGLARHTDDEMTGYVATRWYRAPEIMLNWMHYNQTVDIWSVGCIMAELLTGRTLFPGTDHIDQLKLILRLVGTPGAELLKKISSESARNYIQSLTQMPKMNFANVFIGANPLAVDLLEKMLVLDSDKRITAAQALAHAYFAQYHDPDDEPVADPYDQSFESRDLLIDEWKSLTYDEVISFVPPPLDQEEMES
Protocol: as §1

B-Raf = B-Raf (Homo sapiens (Human), UniProt P15056); experiment: KINOMEscan binding of kinase to its standard ligand
B-Raf, sequence (P15056 whole entry): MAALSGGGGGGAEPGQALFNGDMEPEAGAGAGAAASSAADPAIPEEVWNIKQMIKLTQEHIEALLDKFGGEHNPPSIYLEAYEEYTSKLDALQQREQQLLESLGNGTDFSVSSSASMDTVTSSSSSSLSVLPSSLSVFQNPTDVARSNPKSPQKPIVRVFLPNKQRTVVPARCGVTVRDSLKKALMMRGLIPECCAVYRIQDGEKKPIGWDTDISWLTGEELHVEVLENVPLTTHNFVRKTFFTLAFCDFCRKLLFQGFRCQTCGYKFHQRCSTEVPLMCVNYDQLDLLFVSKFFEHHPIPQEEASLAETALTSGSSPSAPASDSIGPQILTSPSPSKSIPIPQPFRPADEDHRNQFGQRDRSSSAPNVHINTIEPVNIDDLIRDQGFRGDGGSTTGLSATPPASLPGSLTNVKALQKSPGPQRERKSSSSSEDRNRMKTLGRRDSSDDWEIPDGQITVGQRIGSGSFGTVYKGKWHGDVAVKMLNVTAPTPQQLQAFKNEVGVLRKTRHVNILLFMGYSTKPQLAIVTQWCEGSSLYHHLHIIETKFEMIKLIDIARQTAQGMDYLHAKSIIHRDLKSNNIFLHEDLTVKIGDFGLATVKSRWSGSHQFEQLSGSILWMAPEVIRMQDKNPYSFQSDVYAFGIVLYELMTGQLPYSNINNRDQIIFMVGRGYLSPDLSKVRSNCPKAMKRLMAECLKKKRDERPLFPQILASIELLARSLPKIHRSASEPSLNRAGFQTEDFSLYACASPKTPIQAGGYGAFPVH
Protocol: as §1

B-Raf (V600E) = B-Raf (V600E) (Homo sapiens (Human), UniProt P15056, V600E); experiment: as above
B-Raf (V600E), sequence (P15056 whole entry V600E): as the sequence (P15056 whole entry) above, with V600E counted along it
Protocol: as §1

non-mutant kinases = type: binding; conditions: for KinomeScan Selectivity Score S(10): (number of non-mutant kinases with % Ctrl <10)/(number of non-mutant kinases tested); for KinomeScan Selectivity Score S(35): (number of non-mutant kinases with % Ctrl <35)/(number of non-mutant kinases tested); for number of individual kinase hits, S(1): non-mutant kinases with % Ctrl <1; for number of individual kinase hits, S(10): non-mutant kinases with % Ctrl <10; for number of individual kinase hits, S(35): non-mutant kinases with % Ctrl <35
Protocol: These assays may be conducted by DiscoverX (formerly Ambit; San Diego, Calif.). The percentage inhibition produced by incubation with a test compound may be calculated relative to the non-inhibited control.

[6] = male, Wistar, rat, plasma, po, 5 mg/kg
[7] = male, Wistar, rat, plasma, rats, intravenous 0.25 mg/kg
[8] = male, Wistar, rat, plasma, rats

| SMILES | inflammatory cell infiltrate in the reticular and laminar propria zones [1] | ulcer grade and epithelial repair compared to the vehicle control [1] | activity in in vivo model of colonic inflammation (histopathology analysis) [1] | AUC(0-inf) [2, 7] [ng·h/mL] | AUC(0-t) [2, 7] [ng·h/mL] | half-life [2, 7] [min] | C0 [2, 8] [ng/mL] | Vd [2, 7] [L/kg] | CI ([2]; rats, intravenous 0.25 mg/kg) [mL/min/kg] | Fpo ([2]; rats) [%] | IC50 (Syk [3]) [nM] | cytokine (IL-1β, IL-6 and IL-8) release compared to the DMSO control [4] | Cytokine release from biopsies of UC patients: IL-1β release [4] [%] | IC50 (CYP3A4; CYP3A4, 0 min preincubation) [nM] | IC50 (CYP3A4; CYP3A4, 30 min preincubation) [nM] | Kd (Syk [5]) [nM] | Kd (Lck) [nM] | Kd (p38 MAPKα) [nM] | effect on the binding of the kinase B-Raf to its standard ligand (B-Raf) | effect on the binding of the kinase B-Raf (V600E) to its standard ligand (B-Raf (V600E)) | further results |
| --- | --- | --- | --- | --- | --- | --- | --- | --- | --- | --- | --- | --- | --- | --- | --- | --- | --- | --- | --- | --- | --- |
| COCCOCCOCCOc1cc(Nc2nccc(Oc3ccc(NC(=O)Nc4cc(C(C)(C)C)cc(NS(C)(=O)=O)c4OC)c4ccccc34)n2)cc(OC)c1 [Example 4, N-(5-(tert-Butyl)-2-methoxy-3-(3-(4-((2-((3-methoxy-5-(2-(2-(2-methoxyethoxy)ethoxy)-ethoxy)phenyl)amino)pyrimidin-4-yl)oxy)naphthalen-1-yl)ureido)phenyl)methanesulfonamide] | marked reduction | marked improvements | substantial activity | 563 | 558 | 48 | 3040 | 0.2 | 7.9 | 0.2 | 86 | significantly inhibited | 17 ± 21 | > 5000 | 2700 | 14 | 3 | 19 | did not have any significant effect | did not have any significant effect | LP inflammation ([1]; 1 mg/kg oral): 2.6 ± 0.3; Ulcer grade ([1]; 1 mg/kg oral): 3.6 ± 0.4; AUC(0-inf) [2, 6]: 40.8 ng·h/mL; AUC(0-t) [2, 6]: 27 ng·h/mL; Cmax [2, 6]: 15.5 ng/mL; Tmax [2, 6]: 30 min; Cytokine release from biopsies of UC patients: IL-6 release [4]: 5 ± 1%; Cytokine release from biopsies of UC patients: IL-8 release [4]: 2 ± 1%; inhibition at 5 μM (CYP3A4; CYP3A4, 0 min preincubation): 9%; inhibition at 5 μM (CYP3A4; CYP3A4, 30 min preincubation): 58% |
| COc1cc(Nc2cc(Oc3ccc(NC(=O)Nc4cc(C(C)(C)C)cc(NS(C)(=O)=O)c4OC)c4ccccc34)ccn2)cc(C(=O)NCCN2CCOCC2)c1 [Example 27] | marked reduction | marked improvements | substantial activity | 590 | 588 | 48 | 3880 | 0.1 | 7.1 | 0.0 | 443 | significantly inhibited | 11 ± 54 | > 15000 | 8900 | 27 | 4.3 | 29 | did not have any significant effect | did not have any significant effect | LP inflammation ([1]; 5 mg/kg oral): 3.2 ± 0.4; Ulcer grade ([1]; 5 mg/kg oral): 3.3 ± 0.5; Cytokine release from biopsies of UC patients: IL-6 release [4]: 48 ± 26%; Cytokine release from biopsies of UC patients: IL-8 release [4]: 60 ± 15%; inhibition at 15 µM (CYP3A4; CYP3A4, 0 min preincubation): 19%; inhibition at 15 µM (CYP3A4; CYP3A4, 30 min preincubation): 57% |
| COCCOCCOCCNC(=O)c1cc(Nc2cc(Oc3ccc(NC(=O)Nc4cc(C(C)(C)C)cc(NS(C)(=O)=O)c4OC)c4ccccc34)ccn2)cc(OC)c1 [Example 3, 3-((4-((4-(3-(5-(tert-Butyl)-2-methoxy-3-(methylsulfonamido)phenyl)ureido)naphthalen-1-yl)oxy)pyridin-2-yl)amino)-5-methoxy-N-(2-(2-(2-methoxyethoxy)ethoxy)ethyl)benzamide] | marked reduction | marked improvements | substantial activity | 821 | 820 | 12 | 4380 | 0.1 | 5.1 | 0.0 | 692 | – | – | > 15000 | > 15000 | 10 | 2.3 | 6.9 | did not have any significant effect | did not have any significant effect | LP inflammation ([1]; 5 mg/kg oral): 3.8 ± 0.5; Ulcer grade ([1]; 5 mg/kg oral): 3.7 ± 0.4; inhibition at 15 µM (CYP3A4; CYP3A4, 0 min preincubation): 22%; inhibition at 15 µM (CYP3A4; CYP3A4, 30 min preincubation): 51%; KinomeScan Selectivity Score S(10) (non-mutant kinases; 50 nM): 0.023; KinomeScan Selectivity Score S(35) (non-mutant kinases; 50 nM): 0.091; number of individual kinase hits, S(1) (non-mutant kinases; 50 nM): 0; number of individual kinase hits, S(10) (non-mutant kinases; 50 nM): 9; number of individual kinase hits, S(35) (non-mutant kinases; 50 nM): 36; KinomeScan Selectivity Score S(1) (non-mutant kinases; 500 nM, (number of non-mutant kinases with % Ctrl <1)/(number of non-mutant kinases tested)): 0.046; KinomeScan Selectivity Score S(10) (non-mutant kinases; 500 nM): 0.149; KinomeScan Selectivity Score S(35) (non-mutant kinases; 500 nM): 0.235; number of individual kinase hits, S(1) (non-mutant kinases; 500 nM): 18; number of individual kinase hits, S(10) (non-mutant kinases; 500 nM): 59; number of individual kinase hits, S(35) (non-mutant kinases; 500 nM): 93; selectivity compared to the Reference Compound (non-mutant kinases; as evidenced by lower selectivity scores): substantially improved selectivities |
